Test results reported in patent publication US11773078B2, “Furin inhibitors” (Glaxosmithkline Intellectual Property Development Limited, priority 2018, dated 2023).

Columns and labels:
[1] = biological target: T1, furin (endogenous protease) in U20S cells (Homo sapiens, UniProt P09958); test: Furin cell-based assay (image-based, Golgi-targeted GFP with BMP10 furin/PCSK cleavage site); conditions: 24-hour incubation, read-out: furin golgi cell pXC50 (converted);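 also: Read-out is mean GFP fluorescence of Golgi puncta per cell by high-content imaging, retained when furin inhibited, over an eleven-point 0.00017–10 µM series, four-parameter fit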
T1 construct: the endogenous protease cleaves GFP; endogenous in cells; host or cells: U2OS cells transduced with a BacMam reporter

[2] = biological target: T2, Furin (108-574-Tev-Flag-His) enzyme (Homo sapiens, UniProt P09958); test: Furin enzyme assay; format: biochemical; conditions: for IC50: read-out: furin enzyme pIC50 (converted)
T2 construct: Furin (108-574-Tev-Flag-His) enzyme was expressed and purified from CHO cells; TEV cleavage site (C); FLAG (C); His (C); made in house; host or cells: CHO cells
Outline: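 CHO-expressed, purified furin construct at 40 pM in 100 mM HEPES pH7.5, 1 mM CaCl2, 0.005% Triton X-100. Eleven-point 1:3 series, 0.00017–10 μM final, incubated 2 h at room temperature and read on Envision. pXC50 from four-parameter fit.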

T2 sequence (P09958 108-574): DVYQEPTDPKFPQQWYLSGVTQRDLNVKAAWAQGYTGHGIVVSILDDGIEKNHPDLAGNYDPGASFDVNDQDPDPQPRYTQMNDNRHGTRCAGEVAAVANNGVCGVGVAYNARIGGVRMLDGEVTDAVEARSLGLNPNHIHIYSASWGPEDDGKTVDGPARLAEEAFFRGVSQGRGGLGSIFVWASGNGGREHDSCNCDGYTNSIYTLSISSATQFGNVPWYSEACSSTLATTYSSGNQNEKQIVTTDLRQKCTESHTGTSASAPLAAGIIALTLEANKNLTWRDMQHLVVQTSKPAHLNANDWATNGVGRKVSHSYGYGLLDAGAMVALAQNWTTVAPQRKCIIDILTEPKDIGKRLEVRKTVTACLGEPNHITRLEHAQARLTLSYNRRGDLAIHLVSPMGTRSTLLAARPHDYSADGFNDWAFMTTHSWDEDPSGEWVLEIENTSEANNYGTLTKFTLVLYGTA
T1 sequence (P09958 108-794): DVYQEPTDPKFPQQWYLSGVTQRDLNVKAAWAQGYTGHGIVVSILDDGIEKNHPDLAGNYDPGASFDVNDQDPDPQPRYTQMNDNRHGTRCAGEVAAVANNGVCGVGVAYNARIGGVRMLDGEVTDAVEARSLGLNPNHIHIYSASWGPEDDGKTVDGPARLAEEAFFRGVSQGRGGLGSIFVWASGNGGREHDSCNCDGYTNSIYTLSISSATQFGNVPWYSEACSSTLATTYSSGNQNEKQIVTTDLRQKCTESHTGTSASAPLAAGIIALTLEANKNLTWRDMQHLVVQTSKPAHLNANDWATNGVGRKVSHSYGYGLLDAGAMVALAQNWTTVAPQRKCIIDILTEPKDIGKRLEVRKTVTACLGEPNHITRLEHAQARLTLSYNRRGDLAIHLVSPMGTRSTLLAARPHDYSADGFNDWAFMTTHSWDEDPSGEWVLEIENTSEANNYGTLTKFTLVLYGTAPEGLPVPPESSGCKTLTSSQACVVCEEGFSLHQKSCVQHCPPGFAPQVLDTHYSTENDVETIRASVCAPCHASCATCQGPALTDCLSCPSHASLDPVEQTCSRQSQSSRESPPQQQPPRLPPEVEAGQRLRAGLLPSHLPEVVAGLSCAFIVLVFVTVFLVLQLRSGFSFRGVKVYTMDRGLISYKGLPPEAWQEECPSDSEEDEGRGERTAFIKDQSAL

| Structure (SMILES) | EC50 [1] [nM] | furin enzyme pIC50 [2] | IC50 [2] [nM] |
| --- | --- | --- | --- |
| NC1CCN(c2ncc(Oc3cc(CN4CCC(CC(=O)O)CC4)cc(-c4cc(Cl)cc(Cl)c4)n3)cn2)CC1 [Example 158, 2-(1-((2-((2-(4-Aminopiperidin-1-yl)pyrimidin-5-yl)oxy)-6-(3,5-dichlorophenyl)pyridin-4-yl)methyl)piperidin-4-yl)acetic acid] | 79.4 | 8.8 |  |
| C[C@H]1CN(c2ncc(Oc3cc(CN4CCC(CC(=O)O)CC4)cc(-c4cc(Cl)cc(Cl)c4)n3)cn2)CCN1 [Example 159, (S)-2-(1-((2-(3,5-Dichlorophenyl)-6-((2-(3-methylpiperazin-1-yl)pyrimidin-5-yl)oxy)pyridin-4-yl)methyl)piperidin-4-yl)acetic acid] | 25.1 | 8.5 |  |
| CC1(C)CN(c2ncc(Oc3cc(CN4CCC(CC(=O)O)CC4)cc(-c4cc(Cl)cc(Cl)c4)n3)cn2)CCN1 [Example 160, 2-(1-((2-(3,5-dichlorophenyl)-6-((2-(3,3-dimethylpiperazin-1-yl)pyrimidin-5-yl)oxy)pyridin-4-yl)methyl)piperidin-4-yl)acetic acid] | 25.1 | 8.8 |  |
| O=C(O)CC1CCN(Cc2cc(Oc3cnc(N4CC5CNCC5C4)nc3)nc(-c3cc(Cl)cc(Cl)c3)c2)CC1 (stereo not shown) [Example 161, 2-(1-((2-(3,5-dichlorophenyl)-6-((2-(hexahydropyrrolo[3,4-c]pyrrol-2(1H)-yl)pyrimidin-5-yl)oxy)pyridin-4-yl)methyl)piperidin-4-yl)acetic acid] | 39.8 | 8.3 |  |
| O=C(O)CC1CCN(Cc2cc(Oc3cnc(N4CC5CC(C4)N5)nc3)nc(-c3cc(Cl)cc(Cl)c3)c2)CC1 [Example 162, 2-(1-((2-((2-(3,6-diazabicyclo[3.1.1]heptan-3-yl)pyrimidin-5-yl)oxy)-6-(3,5-dichlorophenyl)pyridin-4-yl)methyl)piperidin-4-yl)acetic acid] | 79.4 | 8.4 |  |
| O=C(O)CC1CCN(Cc2cc(Oc3cnc(N4CC5CCC(C4)N5)nc3)nc(-c3cc(Cl)cc(Cl)c3)c2)CC1 [Example 163, 2-(1-((2-((2-(3,8-diazabicyclo[3.2.1]octan-3-yl)pyrimidin-5-yl)oxy)-6-(3,5-dichlorophenyl)pyridin-4-yl)methyl)piperidin-4-yl)acetic acid] | 10 | 8.7 |  |
| O=C(O)CC1CCN(Cc2cc(Oc3cnc(N4CCNC5(CC5)C4)nc3)nc(-c3cc(Cl)cc(Cl)c3)c2)CC1 [Example 164, 2-(1-((2-((2-(4,7-diazaspiro[2.5]octan-7-yl)pyrimidin-5-yl)oxy)-6-(3,5-dichlorophenyl)pyridin-4-yl)methyl)piperidin-4-yl)acetic acid] | 25.1 |  | 3.98 |
| NC1(CO)CCN(c2ncc(Oc3cc(CN4CCC(CC(=O)O)CC4)cc(-c4cc(Cl)cc(Cl)c4)n3)cn2)CC1 [Example 165, 2-(1-((2-((2-(4-amino-4-(hydroxymethyl)piperidin-1-yl)pyrimidin-5-yl)oxy)-6-(3,5-dichlorophenyl)pyridin-4-yl)methyl)piperidin-4-yl)acetic acid] | 31.6 | 8.4 |  |
| CC(=O)NCC1CCN(Cc2cc(Oc3cnc(N4CCN(CCC(=O)O)CC4)nc3)cc(-c3cc(Cl)cc(Cl)c3)c2)CC1 [Example 168, 3-(4-(5-((5-((4-(Acetamidomethyl)piperidin-1-yl)methyl)-3′,5′-dichloro-[1,1′-biphenyl]-3-yl)oxy)pyrimidin-2-yl)piperazin-1-yl)propanoic acid] | 25.1 | 9.3 |  |
| O=C(O)CC1CCN(Cc2cc(Oc3cnc(N4CCN(CC(O)CO)CC4)nc3)nc(-c3cc(Cl)cc(Cl)c3)c2)CC1 (stereo not shown) [Example 177, 2-(1-((2-(3,5-dichlorophenyl)-6-((2-(4-(2,3-dihydroxypropyl)piperazin-1-yl)pyrimidin-5-yl)oxy)pyridin-4-yl)methyl)piperidin-4-yl)acetic acid] | 20 | 9.2 |  |
| CC(=O)NCC1CCN(Cc2cc(Oc3ccc(N4CC[N+](C)(O)CC4)nc3)nc(-c3cc(Cl)cc(Cl)c3)c2)CC1 [Example 178, 4-(5-((4-((4-(Acetamidomethyl)piperidin-1-yl)methyl)-6-(3,5-dichlorophenyl)pyridin-2-yl)oxy)pyridin-2-yl)-1-methylpiperazine1-oxide] | < 2.51 | 8.9 |  |

The next lines start with the values.

| EC50 [1] [nM] | furin enzyme pIC50 [2] | IC50 [2] [nM] | Structure (SMILES) |
| --- | --- | --- | --- |
| 15.8 | 8.8 |  | CN1CCCN(c2ccc(Oc3cc(CN4CCC(CC(=O)O)CC4)cc(-c4cc(Cl)cc(Cl)c4)n3)cn2)CC1 [Example 156, 2-(1-((2-(3,5-Dichlorophenyl)-6-((6-(4-methyl-1,4-diazepan-1-yl)pyridin-3-yl)oxy)pyridin-4-yl)methyl)piperidin-4-yl)acetic acid] |
| 1.26 | 10.8 |  | CC(=O)NCC1CCN(Cc2cc(Oc3ccc(N4CCN(C)CC4)nn3)nc(-c3cc(Cl)cc(Cl)c3)c2)CC1 [Example 157, N-((1-((2-(3,5-dichlorophenyl)-6-((6-(4-methylpiperazin-1-yl)pyridazin-3-yl)oxy)pyridin-4-yl)methyl)piperidin-4-yl)methyl)acetamide] |
| 63.1 | 8.5 |  | O=C(O)CC1CCN(Cc2cc(Oc3ccc(N4CCCNCC4)nc3)nc(-c3cc(Cl)cc(Cl)c3)c2)CC1 [Example 166, 2-(1-((2-((6-(1,4-Diazepan-1-yl)pyridin-3-yl)oxy)-6-(3,5-dichlorophenyl)pyridin-4-yl)methyl)piperidin-4-yl)acetic acid] |
| 50.1 | 8.3 |  | CC(=O)NCC1CCN(Cc2cc(Oc3cnc(N4CCN(CCS(C)(=O)=O)CC4)nc3)cc(-c3cc(Cl)cc(Cl)c3)c2)CC1 [Example 167, N-((1-((3′,5′-Dichloro-5-((2-(4-(2-(methylsulfonyl)ethyl)piperazin-1-yl)pyrimidin-5-yl)oxy)-[1,1′-biphenyl]-3-yl)methyl)piperidin-4-yl)methyl)acetamide] |
| 1260 |  | 0.0316 | CC(=O)NCC1CCN(Cc2cc(Oc3ccc(N4CCN(CCC(=O)O)CC4)nn3)nc(-c3cc(Cl)cc(Cl)c3)c2)CC1 [Example 169, 3-(4-(6-((4-((4-(acetamidomethyl)piperidin-1-yl)methyl)-6-(3,5-dichlorophenyl)pyridin-2-yl)oxy)pyridazin-3-yl)piperazin-1-yl)propanoic acid] |
| 12.6 |  | 0.794 | CC(=O)NCC1CCN(Cc2cc(Oc3cnc(N4CCN(CCC(N)=O)CC4)nc3)cc(-c3cc(Cl)cc(Cl)c3)c2)CC1 [Example 170, 3-(4-(5-((5-((4-(acetamidomethyl)piperidin-1-yl)methyl)-3′,5′-dichloro-[1,1′-biphenyl]-3-yl)oxy)pyrimidin-2-yl)piperazin-1-yl)propanamide] |
| 2 | 10.7 |  | CNC(=O)NCC1CCN(Cc2cc(Oc3cnc(N4CCN(CCCO)CC4)nc3)nc(-c3cc(Cl)cc(Cl)c3)c2)CC1 [Example 171, 1-((1-((2-(3,5-dichlorophenyl)-6-((2-(4-(3-hydroxypropyl)piperazin-1-yl)pyrimidin-5-yl)oxy)pyridin-4-yl)methyl)piperidin-4-yl)methyl)-3-methylurea] |
| 1.26 |  | 0.398 | CC(=O)NCC1CCN(Cc2cc(Oc3cnc(N4CCN(CCC5(C(=O)O)CC5)CC4)nc3)nc(-c3cc(Cl)cc(Cl)c3)c2)CC1 [Example 173, 1-(2-(4-(5-((4-((4-(acetamidomethyl)piperidin-1-yl)methyl)-6-(3,5-dichlorophenyl)pyridin-2-yl)oxy)pyrimidin-2-yl)piperazin-1-yl)ethyl)cyclopropanecarboxylic acid] |
| 20 | 9.2 |  | CC(=O)NCC1CCN(Cc2cc(Oc3ccc(N4CCN(CCC(C)C(=O)O)CC4)nc3)nc(-c3cc(Cl)cc(Cl)c3)c2)CC1 (stereo not shown) [Example 174, 4-(4-(5-((4-((4-(acetamidomethyl)piperidin-1-yl)methyl)-6-(3,5-dichlorophenyl)pyridin-2-yl)oxy)pyridin-2-yl)piperazin-1-yl)-2-methylbutanoic acid] |
| 3.98 | 9 |  | COC(=O)NC(=O)CCN1CCN(c2ccc(Oc3cc(CN4CCC(CNC(C)=O)CC4)cc(-c4cc(Cl)cc(Cl)c4)n3)cn2)CC1 [Example 176, methyl (3-(4-(5-((4-((4-(acetamidomethyl)piperidin-1-yl)methyl)-6-(3,5-dichlorophenyl)pyridin-2-yl)oxy)pyridin-2-yl)piperazin-1-yl)propanoyl)carbamate] |
| 12.6 | 8.8 |  | CC(=O)NCC1CCN(Cc2cc(Oc3ccc(N4CC[N+](CCO)(CCO)CC4)nc3)nc(-c3cc(Cl)cc(Cl)c3)c2)CC1 [Example 179, 1-(4-(5-((4-((4-(Acetamidomethyl)piperidin-1-yl)methyl)-6-(3,5-dichlorophenyl)pyridin-2-yl)oxy)pyridin-2-yl)-1-(2-hydroxyethyl)piperazin-1-ium-1-yl)-2-hydroxyethan-1-ide] |
| 79.4 | 9 |  | CC(=O)NCC1CCN(Cc2cc(Oc3ccc(N4CC[N+](C)(C)CC4)nc3)nc(-c3cc(Cl)cc(Cl)c3)c2)CC1.[Cl-] [Example 181, 4-(5-((4-((4-(Acetamidomethyl)piperidin-1-yl)methyl)-6-(3,5-dichlorophenyl)pyridin-2-yl)oxy)pyridin-2-yl)-1,1-dimethylpiperazin-1-ium chloride] |
